Experimental data taken from paper PMC9067936, “SHIP164 is a chorein motif lipid transfer protein that controls endosome–Golgi membrane traffic” (The Journal of Cell Biology, 2022).

Target: T1, 3XFLAG-SHIP164Δ901–1099 (Homo sapiens, UniProt A0JNW5, DEL901-1099)
T1 construct: gene BLTP3B; residues 901-1099 (predicted unstructured) deleted; N-terminal 3xFLAG tag kept; expressed in Expi293F; tail-to-tail dimer in vitro
Assay: native gel co-migration, NBD fluorescence calibrated with E-Syt2 standard curve
Type: binding
Conditions: 0.2 mM NBD-PE, 2 h on ice; labelled compound; stoichiometry estimate

T1 sequence (A0JNW5 with tags, fused parts or gaps DEL901-1099): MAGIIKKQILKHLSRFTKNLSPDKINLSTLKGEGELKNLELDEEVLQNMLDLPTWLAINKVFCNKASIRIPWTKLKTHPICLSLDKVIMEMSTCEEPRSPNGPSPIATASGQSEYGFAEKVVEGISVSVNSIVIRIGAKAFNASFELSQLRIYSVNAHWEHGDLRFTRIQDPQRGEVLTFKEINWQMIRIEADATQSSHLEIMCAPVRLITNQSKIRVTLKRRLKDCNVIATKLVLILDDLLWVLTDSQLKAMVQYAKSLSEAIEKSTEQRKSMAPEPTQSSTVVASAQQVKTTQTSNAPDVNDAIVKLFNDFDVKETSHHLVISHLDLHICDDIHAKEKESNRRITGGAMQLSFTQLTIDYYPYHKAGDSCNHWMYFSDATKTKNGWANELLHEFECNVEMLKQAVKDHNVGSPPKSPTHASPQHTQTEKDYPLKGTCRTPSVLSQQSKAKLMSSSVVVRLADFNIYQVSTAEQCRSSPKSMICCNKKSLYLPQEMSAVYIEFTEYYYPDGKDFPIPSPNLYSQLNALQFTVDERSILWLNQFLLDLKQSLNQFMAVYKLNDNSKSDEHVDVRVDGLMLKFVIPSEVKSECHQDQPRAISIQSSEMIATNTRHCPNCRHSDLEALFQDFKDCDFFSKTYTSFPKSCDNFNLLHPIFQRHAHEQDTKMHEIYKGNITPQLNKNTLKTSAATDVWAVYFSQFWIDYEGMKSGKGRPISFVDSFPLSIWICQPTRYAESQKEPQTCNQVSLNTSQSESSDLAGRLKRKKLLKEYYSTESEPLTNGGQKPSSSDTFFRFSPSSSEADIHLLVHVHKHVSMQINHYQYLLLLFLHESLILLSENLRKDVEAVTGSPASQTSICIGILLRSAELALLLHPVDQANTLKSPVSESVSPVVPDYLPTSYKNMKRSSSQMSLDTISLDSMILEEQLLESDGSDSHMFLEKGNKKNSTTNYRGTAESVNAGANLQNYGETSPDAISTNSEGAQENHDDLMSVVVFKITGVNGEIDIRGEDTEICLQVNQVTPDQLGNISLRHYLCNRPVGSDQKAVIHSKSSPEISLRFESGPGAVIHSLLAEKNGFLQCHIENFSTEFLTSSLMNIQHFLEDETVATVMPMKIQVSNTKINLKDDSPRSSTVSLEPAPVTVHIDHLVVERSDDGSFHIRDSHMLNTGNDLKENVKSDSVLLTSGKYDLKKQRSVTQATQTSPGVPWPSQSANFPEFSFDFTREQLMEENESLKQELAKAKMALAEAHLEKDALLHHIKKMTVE

- lipids per SHIP164 molecule: ~ 8 lipids per protein molecule
Compound: CCCCCCCC/C=C\CCCCCCCC(=O)OC[C@H](COP(=O)(O)OCCNc1ccc([N+](=O)[O-])c2nonc12)OC(=O)CCCCCCC/C=C\CCCCCCCC [NBD-PE]
